Measurements published in ChEMBL document CHEMBL3734705, “Synthesis and in vitro cytotoxicity of novel C-12 substituted-14-deoxy-andrographolide derivatives as potent anti-cancer agents” (2015).

Key:
[1] = test system: SR; experiment: Cytotoxicity against human SR cells assessed as growth level at 10 uM after 48 hrs by SRB assay; type: functional
[2] = test system: NCI-H23; experiment: Cytotoxicity against human NCI-H23 cells assessed as growth level at 10 uM after 48 hrs by SRB assay; type: functional
[3] = test system: NCI-H322M; experiment: Cytotoxicity against human NCI-H322M cells assessed as growth level at 10 uM after 48 hrs by SRB assay; type: functional
[4] = Cytotoxicity against human COLO205 cells assessed as growth level at 10 uM after 48 hrs by SRB assay; type: functional, COLO 205
[5] = Cytotoxicity against human HCC2998 cells assessed as growth level at 10 uM after 48 hrs by SRB assay; type: functional, HCC 2998
[6] = test system: KM12; experiment: Cytotoxicity against human KM12 cells assessed as growth level at 10 uM after 48 hrs by SRB assay; type: functional
[7] = Cytotoxicity against human SNB19 cells assessed as growth level at 10 uM after 48 hrs by SRB assay; type: functional, SNB-19
[8] = Cytotoxicity against human SNB75 cells assessed as growth level at 10 uM after 48 hrs by SRB assay; type: functional, SNB-75
[9] = test system: U-251; experiment: Cytotoxicity against human U251 cells assessed as growth level at 10 uM after 48 hrs by SRB assay; type: functional
[10] = Cytotoxicity against human UACC257 cells assessed as growth level at 10 uM after 48 hrs by SRB assay; type: functional, UACC-257
[11] = Cytotoxicity against human IGROV1 cells assessed as growth level at 10 uM after 48 hrs by SRB assay; type: functional, IGROV-1
[12] = Cytotoxicity against human OVCAR5 cells assessed as growth level at 10 uM after 48 hrs by SRB assay; type: functional, OVCAR-5
[13] = Cytotoxicity against human OVCAR8 cells assessed as growth level at 10 uM after 48 hrs by SRB assay; type: functional, OVCAR-8
[14] = test system: 786-0; experiment: Cytotoxicity against human 786-0 cells assessed as growth level at 10 uM after 48 hrs by SRB assay; type: functional
[15] = Cytotoxicity against human Caki1 cells assessed as growth level at 10 uM after 48 hrs by SRB assay; type: functional, CAKI-1
[16] = Cytotoxicity against human RXF393 cells assessed as growth level at 10 uM after 48 hrs by SRB assay; type: functional, RXF 393
[17] = test system: SN12C; experiment: Cytotoxicity against human SN12C cells assessed as growth level at 10 uM after 48 hrs by SRB assay; type: functional
[18] = Cytotoxicity against human UO31 cells assessed as growth level at 10 uM after 48 hrs by SRB assay; type: functional, UO-31
[19] = test system: T47D; experiment: Cytotoxicity against human T47D cells assessed as growth level at 10 uM after 48 hrs by SRB assay; type: functional
[20] = Cytotoxicity against human MOLT4 cells assessed as growth inhibition at 10 uM after 48 hrs by SRB assay; type: functional; conditions: MOLT-4, 48 h, read-out: GI
[21] = Cytotoxicity against human HCT15 cells assessed as growth inhibition at 10 uM after 48 hrs by SRB assay; type: functional; conditions: HCT-15, 48 h, read-out: GI
[22] = Cytotoxicity against human SF268 cells assessed as growth inhibition at 10 uM after 48 hrs by SRB assay; type: functional; conditions: SF-268, 48 h, read-out: GI
[23] = Cytotoxicity against human SF295 cells assessed as growth inhibition at 10 uM after 48 hrs by SRB assay; type: functional; conditions: SF-295, 48 h, read-out: GI
[24] = Cytotoxicity against human SF539 cells assessed as growth inhibition at 10 uM after 48 hrs by SRB assay; type: functional; conditions: SF-539, 48 h, read-out: GI
[25] = Cytotoxicity against human LOXIMVI cells assessed as growth inhibition at 10 uM after 48 hrs by SRB assay; type: functional; conditions: LOX IMVI, read-out: GI
[26] = test system: Malme-3M; experiment: Cytotoxicity against human MALME-3M cells assessed as growth inhibition at 10 uM after 48 hrs by SRB assay; type: functional; conditions: read-out: GI
[27] = Cytotoxicity against human BT549 cells assessed as growth inhibition at 10 uM after 48 hrs by SRB assay; type: functional; conditions: BT-549, 48 h, read-out: GI
[28] = test system: SK-MEL-5; experiment: Cytotoxicity against human SK-MEL-5 cells assessed as growth level at 10 uM after 48 hrs by SRB assay; type: functional
[29] = test system: CCRF-CEM; experiment: Cytotoxicity against human CCRF-CEM cells after 48 hrs by SRB assay; type: functional
[30] = test system: K562; experiment: Cytotoxicity against human K562 cells after 48 hrs by SRB assay; type: functional; conditions: K562, 48 h
[31] = test system: NCI-H23; experiment: Cytotoxicity against human NCI-H23 cells after 48 hrs by SRB assay; type: functional; conditions: NCI-H23, 48 h
[32] = Cytotoxicity against human COLO205 cells after 48 hrs by SRB assay; type: functional; conditions: COLO 205, 48 h
[33] = Cytotoxicity against human HCT116 cells after 48 hrs by SRB assay; type: functional; conditions: HCT-116, 48 h
[34] = Cytotoxicity against human HCT15 cells after 48 hrs by SRB assay; type: functional; conditions: HCT-15, 48 h
[35] = test system: HT-29; experiment: Cytotoxicity against human HT-29 cells after 48 hrs by SRB assay; type: functional; conditions: HT-29, 48 h
[36] = test system: KM12; experiment: Cytotoxicity against human KM12 cells after 48 hrs by SRB assay; type: functional; conditions: KM12, 48 h
[37] = Cytotoxicity against human UACC257 cells after 48 hrs by SRB assay; type: functional; conditions: UACC-257, 48 h
[38] = Cytotoxicity against human OVCAR4 cells after 48 hrs by SRB assay; type: functional; conditions: OVCAR-4, 48 h
[39] = test system: A498; experiment: Cytotoxicity against human A498 cells after 48 hrs by SRB assay; type: functional; conditions: A498, 48 h
[40] = Cytotoxicity against human UO31 cells after 48 hrs by SRB assay; type: functional; conditions: UO-31, 48 h
[41] = read-out: LC50 (the source's name)

**Q.** Which results are given for `C=C1CC[C@@H]2[C@](C)(COC(C)=O)[C@H](OC(C)=O)CC[C@@]2(C)[C@@H]1CC(NCc1ccccc1)C1=CCOC1=O` (mixture of isomers)?
**A.** Activity [1]: 20.89%; Activity [2]: 57.36%; Activity [3]: 77.01%; Activity [4]: 45.59%; Activity [5]: 93.69%; Activity [6]: 39.08%; Activity [7]: 68.18%; Activity [8]: 76.94%; Activity [9]: 47.58%; Activity [10]: 32.81%; Activity [11]: 62.9%; Activity [12]: 101.59%; Activity [13]: 28.22%; Activity [14]: 71.35%; Activity [15]: 49.62%; Activity [16]: 74.33%; Activity [17]: 58.19%; Activity [18]: 29.11%; Activity [19]: 14.23%; inhibition of growth at 10 µM [20]: 3.86%; inhibition of growth at 10 µM [21]: 59%; inhibition of growth at 10 µM [22]: 37.9%; inhibition of growth at 10 µM [23]: 36.1%; inhibition of growth at 10 µM [24]: 20.5%; inhibition of growth at 10 µM [25]: 55.4%; inhibition of growth at 10 µM [26]: 22.9%; inhibition of growth at 10 µM [27]: 71.9%

**Q.** Which results are given for `C=C1CC[C@@H]2[C@](C)(COC(C)=O)[C@H](OC(C)=O)CC[C@@]2(C)[C@@H]1CC(Nc1ccc(S(=O)(=O)NC(C)=O)cc1)C1=CCOC1=O` (mixture of isomers)?
**A.** Activity [1]: 2.08%; Activity [2]: 7.36%; Activity [3]: 35.29%; Activity [4]: -32.73%; Activity [5]: -12.74%; Activity [6]: -34%; Activity [7]: 23.04%; Activity [8]: 26.28%; Activity [9]: -65.49%; Activity [28]: 7.36%; Activity [10]: -10.57%; Activity [11]: -10.04%; Activity [12]: -40.14%; Activity [13]: -18.21%; Activity [14]: -66.04%; Activity [15]: 30.25%; Activity [16]: -75.81%; Activity [17]: 1.94%; Activity [18]: -58.46%; Activity [19]: -3.67%; GI50 [29]: 1.93 µM; TGI [29]: 6.26 µM; CC50 [29, 41]: > 75 µM; GI50 [30]: 2.58 µM; LC50 (50% lethal concentration) [30]: > 75 µM; TGI [30]: 17.6 µM; GI50 [31]: 5.52 µM; LC50 [31]: 46.4 µM; TGI [31]: 17.4 µM; GI50 [32]: 1.81 µM; LC50 [32]: 20 µM; TGI [32]: 4.82 µM; GI50 [33]: 1.67 µM; LC50 (concentration killing 50% of cells) [33]: 12.3 µM; TGI [33]: 3.66 µM; GI50 [34]: 1.53 µM; LC50 [34]: 38 µM; TGI [34]: 4.36 µM; GI50 [35]: 1.57 µM; LC50 [35]: 17.9 µM; TGI [35]: 3.55 µM; GI50 [36]: 5.11 µM; LC50 [36]: 40.5 µM; TGI [36]: 15.9 µM; GI50 [37]: 6.83 µM; LC50 (concentration killing 50% of cells) [37]: 35.6 µM; TGI [37]: 16 µM; GI50 [38]: 4.14 µM; TGI [38]: 13.7 µM; CC50 [38, 41]: 33.7 µM; GI50 [39]: 10.3 µM; TGI [39]: 20.1 µM; CC50 [39, 41]: 39.3 µM; GI50 [40]: 3.71 µM; LC50 (concentration killing 50% of cells) [40]: 31.7 µM; TGI [40]: 13.2 µM
